These results are taken from publication PMC8162404, “Proteomimetic surface fragments distinguish targets by function” (Chemical Science, 2020).

The first experiment deals with T1, Gal-1 (Homo sapiens, UniProt P09382).
T1 construct: made in house; host or cells: E. coli BL21(DE3)
T1 sequence (P09382 whole entry): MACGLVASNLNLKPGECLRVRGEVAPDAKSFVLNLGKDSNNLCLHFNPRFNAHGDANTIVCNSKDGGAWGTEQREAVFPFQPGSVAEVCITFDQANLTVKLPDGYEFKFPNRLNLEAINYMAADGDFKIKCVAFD
Kind of experiment: Pull-down assay with immobilized protein and LSM libraries. To be noted: H12 library; 1:1 binding assumed; read-out: Surface mapping KD (apparent). Format: binding. Here is the method:
(§1) Pull-down assays with immobilized test proteins and foldameric LSM libraries were carried out. Proteins were equilibrated with LSM probes, and equilibrium bound fractions (FB) were determined from the unbound fractions measured by HPLC-MS methods. Hits were corrected with background binding of the resin. The protocol allowed all binding events to equilibrate irrespective of affinity, specificity, and binding kinetics. This was essential to judge overall druggability and promiscuity. Importantly, the concentration of protein and the total concentration of foldameric LSMs were equimolar, which minimized competition between the probes. This experimental setup approximated independent binding of individual library members. Results were visualized as heat maps of dissociation constants (Fig. 3).
(§2) Pull-down assay and data analysis
(§3) Pull-down assay. LSM sublibraries were screened separately as previously described.(2) Experiments were performed in the following buffers: (i) 20 mM pH 7.4 HEPES, 150 mM NaCl, 5 mM CaCl2 for CaM; (ii) 50 mM pH 7.4 HEPES, 150 mM NaCl, 1 mM TCEP, 1 mM CaCl2 for S100 proteins; (iii) 20 mM pH 7.4 HEPES, 150 mM NaCl, 1 mM TCEP for Gal-1 and (iv) 20 mM pH 7.4 HEPES, 150 mM NaCl for RecQ-WH. Assays were performed in paper filter spin cups (Thermo Scientific) with sample volumes of 100 µl. Hexahistidine-tagged proteins were immobilized on previously washed Co-NTA resin (TALON, Takara Bio USA, Inc., Mountain View, CA) in 64 µM final concentration. LSM sublibrary was added, in which each of the 64 library members were used at a concentration of 1 µM. Samples were incubated at room temperature for 30 min with shaking at 100 rpm. Then, samples were centrifuged at 1000 rpm for 2 min and washed with 100 µl pull-down buffer to remove unbound compounds.
(§4) The control experiments were performed using the same compounds and the resin but without the immobilized protein. In case of competitive assays, competitor peptides were added to LSM sublibrary samples in 200 µM final concentration. In the case of Gal-1, lactose (competitor) was used in a concentration of 10 mM. Experiments were performed at least twice. Mean […]
(§5) LC-MS methods and parameters. HPLC/ESI-MS analysis was used to characterize the samples from the pull-down assay. LC-MS analysis was performed with a Thermo Scientific Dionex UltiMate 3000 HPLC system interfaced to an LTQ ion trap mass spectrometer (Thermo Electron Corp., San Jose, CA, USA). Samples were injected onto an Aeris Widepore XB-C18 (250 x 4.6 mm) analytical HPLC column using gradient elution 5-80 % solution B during 25 minutes. For pull-down samples, eluent composition was 0.1% acetic acid in distilled water (Solution A) and 0.1% acetic acid in acetonitrile (solution B). Mass spectra were acquired in full scan mode from 200 to 2000 m/z range. For overlapping peaks, selective reaction monitoring (SRM) was […]
(§6) MS data analysis. Thermo Xcalibur 2.2 software was used for peak identification and integration. The majority of the foldameric fragments could be resolved independently via HPLC-MS/MS measurements based on molecular weight, MS fragmentation pattern and retention time. Peaks of some foldamers with β3-hIle or β3-hLeu in position R2 could not be resolved, these were integrated and averaged. In the processing method, each sample component was associated to a chromatographic peak based on previously identified mass (m/z) and retention time (ref (2) and Table S7-10). Using ICIS peak detection algorithm, the general detection and integration criteria were: smoothing points: 5, baseline window: 80, area noise factor: 5, peak noise factor: 10. Using these processing setups, all raw data files were reprocessed together and analyzed. Errors in peak identification during the automatic processing were corrected manually.
(§7) Calculation of the discussed parameters
(§8) 1. Bound fractions (FB.) were calculated from the HPLC-MS intensity loss of the LSM probes compared to the control where no protein was immobilized to the resin: […]
As for `CSCC[C@@H](CC(=O)N[C@H]1CCC[C@@H]1C(=O)N[C@H]1CCC[C@@H]1C(N)=O)NC(=O)[C@H]1CCC[C@@H]1NC(=O)[C@H]1CCC[C@@H]1NC(=O)C[C@H](CCSC)NC(=O)[C@H]1CCC[C@@H]1NC(=O)[C@H]1CCC[C@@H]1N` [H12 MM], the Kd turned out to be 364 µM. Still for that read-out and setting: the result for `N=C(N)NCCC[C@@H](CC(=O)N[C@H]1CCC[C@@H]1C(=O)N[C@H]1CCC[C@@H]1C(N)=O)NC(=O)[C@H]1CCC[C@@H]1NC(=O)[C@H]1CCC[C@@H]1NC(=O)C[C@H](Cc1ccc(O)cc1)NC(=O)[C@H]1CCC[C@@H]1NC(=O)[C@H]1CCC[C@@H]1N` [H12 YR] reads 61 µM; that for `CC[C@H](C)[C@@H](CC(=O)N[C@H]1CCC[C@@H]1C(=O)N[C@H]1CCC[C@@H]1C(=O)N[C@@H](CC(=O)O)CC(=O)N[C@H]1CCC[C@@H]1C(=O)N[C@H]1CCC[C@@H]1C(N)=O)NC(=O)[C@H]1CCC[C@@H]1NC(=O)[C@H]1CCC[C@@H]1N` [H12 ID], 462 µM; that for `CC(C)[C@@H](CC(=O)N[C@H]1CCC[C@@H]1C(=O)N[C@H]1CCC[C@@H]1C(=O)N[C@@H](CCC(=O)O)CC(=O)N[C@H]1CCC[C@@H]1C(=O)N[C@H]1CCC[C@@H]1C(N)=O)NC(=O)[C@H]1CCC[C@@H]1NC(=O)[C@H]1CCC[C@@H]1N` [H12 VE], 469 µM. As for `CC(C)[C@@H](CC(=O)N[C@H]1CCC[C@@H]1C(=O)N[C@H]1CCC[C@@H]1C(N)=O)NC(=O)[C@H]1CCC[C@@H]1NC(=O)[C@H]1CCC[C@@H]1NC(=O)C[C@H](CCC(=O)O)NC(=O)[C@H]1CCC[C@@H]1NC(=O)[C@H]1CCC[C@@H]1N` [H12 EV], the Kd was determined as 316 µM. The same measure, in the same setting: the result for `NC(=O)[C@H]1CCC[C@@H]1NC(=O)[C@H]1CCC[C@@H]1NC(=O)C[C@H](CO)NC(=O)[C@H]1CCC[C@@H]1NC(=O)[C@H]1CCC[C@@H]1NC(=O)C[C@H](CCC(=O)O)NC(=O)[C@H]1CCC[C@@H]1NC(=O)[C@H]1CCC[C@@H]1N` [H12 ES] reads 289 µM.

Another experiment has as its target T2, S100B (Homo sapiens, UniProt P04271).
T2 construct: made in house; host or cells: Escherichia coli BL21(DE3)
T2 sequence (P04271 1-92): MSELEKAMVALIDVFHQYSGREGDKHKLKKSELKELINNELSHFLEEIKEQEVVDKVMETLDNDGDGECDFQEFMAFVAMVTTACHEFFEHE
The description is as above. The experiment is classed as binding. To be noted: H12 library; 1:1 binding assumed; read-out: Surface mapping KD (apparent). The procedure: as §1, §2, §3, §4, §5, §6, §7, §8
As to `CSCC[C@@H](CC(=O)N[C@H]1CCC[C@@H]1C(=O)N[C@H]1CCC[C@@H]1C(N)=O)NC(=O)[C@H]1CCC[C@@H]1NC(=O)[C@H]1CCC[C@@H]1NC(=O)C[C@H](CCSC)NC(=O)[C@H]1CCC[C@@H]1NC(=O)[C@H]1CCC[C@@H]1N` [H12 MM], the Kd is 166 µM. On to `N=C(N)NCCC[C@@H](CC(=O)N[C@H]1CCC[C@@H]1C(=O)N[C@H]1CCC[C@@H]1C(N)=O)NC(=O)[C@H]1CCC[C@@H]1NC(=O)[C@H]1CCC[C@@H]1NC(=O)C[C@H](Cc1ccc(O)cc1)NC(=O)[C@H]1CCC[C@@H]1NC(=O)[C@H]1CCC[C@@H]1N` [H12 YR], for which the Kd is 65 µM. On the same count and under the same terms, under `C[C@@H](CC(=O)N[C@H]1CCC[C@@H]1C(=O)N[C@H]1CCC[C@@H]1C(N)=O)NC(=O)[C@H]1CCC[C@@H]1NC(=O)[C@H]1CCC[C@@H]1NC(=O)C[C@H](CCCCN)NC(=O)[C@H]1CCC[C@@H]1NC(=O)[C@H]1CCC[C@@H]1N` [H12 KA] stands 243 µM; under `C[C@@H](O)[C@@H](CC(=O)N[C@H]1CCC[C@@H]1C(=O)N[C@H]1CCC[C@@H]1C(=O)N[C@@H](CCCCN)CC(=O)N[C@H]1CCC[C@@H]1C(=O)N[C@H]1CCC[C@@H]1C(N)=O)NC(=O)[C@H]1CCC[C@@H]1NC(=O)[C@H]1CCC[C@@H]1N` [H12 TK], 253 µM. On the same count and under the same terms, the result for `CC[C@H](C)[C@@H](CC(=O)N[C@H]1CCC[C@@H]1C(=O)N[C@H]1CCC[C@@H]1C(=O)N[C@H](CC(=O)N[C@H]1CCC[C@@H]1C(=O)N[C@H]1CCC[C@@H]1C(N)=O)[C@@H](C)O)NC(=O)[C@H]1CCC[C@@H]1NC(=O)[C@H]1CCC[C@@H]1N` [H12 IT] reads 216 µM; that for `N=C(N)NCCC[C@@H](CC(=O)N[C@H]1CCC[C@@H]1C(=O)N[C@H]1CCC[C@@H]1C(=O)N[C@@H](CC(N)=O)CC(=O)N[C@H]1CCC[C@@H]1C(=O)N[C@H]1CCC[C@@H]1C(N)=O)NC(=O)[C@H]1CCC[C@@H]1NC(=O)[C@H]1CCC[C@@H]1N` [H12 RN], 217 µM; that for `N=C(N)NCCC[C@@H](CC(=O)N[C@H]1CCC[C@@H]1C(=O)N[C@H]1CCC[C@@H]1C(=O)N[C@@H](CCC(N)=O)CC(=O)N[C@H]1CCC[C@@H]1C(=O)N[C@H]1CCC[C@@H]1C(N)=O)NC(=O)[C@H]1CCC[C@@H]1NC(=O)[C@H]1CCC[C@@H]1N` [H12 RQ], 210 µM. For the compound `C[C@@H](CC(=O)N[C@H]1CCC[C@@H]1C(=O)N[C@H]1CCC[C@@H]1C(=O)N[C@@H](CCCNC(=N)N)CC(=O)N[C@H]1CCC[C@@H]1C(=O)N[C@H]1CCC[C@@H]1C(N)=O)NC(=O)[C@H]1CCC[C@@H]1NC(=O)[C@H]1CCC[C@@H]1N` [H12 AR], the Kd turned out to be 219 µM. Still for that read-out and setting: under `C[C@@H](O)[C@@H](CC(=O)N[C@H]1CCC[C@@H]1C(=O)N[C@H]1CCC[C@@H]1C(N)=O)NC(=O)[C@H]1CCC[C@@H]1NC(=O)[C@H]1CCC[C@@H]1NC(=O)C[C@H](CCCCN)NC(=O)[C@H]1CCC[C@@H]1NC(=O)[C@H]1CCC[C@@H]1N` [H12 KT] stands 226 µM; under `NCCCC[C@@H](CC(=O)N[C@H]1CCC[C@@H]1C(=O)N[C@H]1CCC[C@@H]1C(=O)N[C@@H](CC(N)=O)CC(=O)N[C@H]1CCC[C@@H]1C(=O)N[C@H]1CCC[C@@H]1C(N)=O)NC(=O)[C@H]1CCC[C@@H]1NC(=O)[C@H]1CCC[C@@H]1N` [H12 KN], 274 µM. Still for that read-out and setting: under `CC[C@H](C)[C@@H](CC(=O)N[C@H]1CCC[C@@H]1C(=O)N[C@H]1CCC[C@@H]1C(=O)N[C@@H](CCCCN)CC(=O)N[C@H]1CCC[C@@H]1C(=O)N[C@H]1CCC[C@@H]1C(N)=O)NC(=O)[C@H]1CCC[C@@H]1NC(=O)[C@H]1CCC[C@@H]1N` [H12 IK] stands 87 µM; under `CC(C)C[C@@H](CC(=O)N[C@H]1CCC[C@@H]1C(=O)N[C@H]1CCC[C@@H]1C(=O)N[C@H](CC(=O)N[C@H]1CCC[C@@H]1C(=O)N[C@H]1CCC[C@@H]1C(N)=O)[C@@H](C)O)NC(=O)[C@H]1CCC[C@@H]1NC(=O)[C@H]1CCC[C@@H]1N` [H12 LT], 216 µM; under `NCCCC[C@@H](CC(=O)N[C@H]1CCC[C@@H]1C(=O)N[C@H]1CCC[C@@H]1C(N)=O)NC(=O)[C@H]1CCC[C@@H]1NC(=O)[C@H]1CCC[C@@H]1NC(=O)C[C@H](CO)NC(=O)[C@H]1CCC[C@@H]1NC(=O)[C@H]1CCC[C@@H]1N` [H12 SK], 401 µM. Same read-out and setting: under `CC(C)C[C@@H](CC(=O)N[C@H]1CCC[C@@H]1C(=O)N[C@H]1CCC[C@@H]1C(=O)N[C@@H](CO)CC(=O)N[C@H]1CCC[C@@H]1C(=O)N[C@H]1CCC[C@@H]1C(N)=O)NC(=O)[C@H]1CCC[C@@H]1NC(=O)[C@H]1CCC[C@@H]1N` [H12 LS] stands 258 µM.

The same experiment, now with this note: H14 library; 1:1 binding assumed; read-out: Surface mapping KD (apparent).
Turning to `N=C(N)NCCC[C@@H](CC(=O)N[C@H]1CCCC[C@@H]1C(N)=O)NC(=O)[C@H]1CCCC[C@@H]1NC(=O)[C@H]1CCCC[C@@H]1NC(=O)C[C@H](CC(=O)O)NC(=O)[C@H]1CCCC[C@@H]1N` [H14 DR], the Kd came to 193 µM. On to `N=C(N)NCCC[C@@H](CC(=O)N[C@H]1CCCC[C@@H]1C(N)=O)NC(=O)[C@H]1CCCC[C@@H]1NC(=O)[C@H]1CCCC[C@@H]1NC(=O)C[C@H](CCC(=O)O)NC(=O)[C@H]1CCCC[C@@H]1N` [H14 ER], for which the Kd came to 349 µM.

Turning to `NC(=O)[C@H]1CCCC[C@@H]1NC(=O)C[C@H](Cc1ccc(O)cc1)NC(=O)[C@H]1CCCC[C@@H]1NC(=O)[C@H]1CCCC[C@@H]1NC(=O)C[C@H](CC(=O)O)NC(=O)[C@H]1CCCC[C@@H]1N` [H14 DY], the Kd amounted to 461 µM. Same read-out and setting: under `NCCCC[C@@H](CC(=O)N[C@H]1CCCC[C@@H]1C(=O)N[C@H]1CCCC[C@@H]1C(=O)N[C@@H](CCC(=O)O)CC(=O)N[C@H]1CCCC[C@@H]1C(N)=O)NC(=O)[C@H]1CCCC[C@@H]1N` [H14 KE] stands 324 µM; under `NCCCC[C@@H](CC(=O)N[C@H]1CCCC[C@@H]1C(N)=O)NC(=O)[C@H]1CCCC[C@@H]1NC(=O)[C@H]1CCCC[C@@H]1NC(=O)C[C@H](CCC(=O)O)NC(=O)[C@H]1CCCC[C@@H]1N` [H14 EK], 324 µM.
